Values after ≈ are worked out from the molar mass of the structure shown. Read-outs that look alike come from different tables or passages of the source.
Experiments:
H. pylori [1] = settings: Helicobacter pylori
L. reuteri DSM 17938 = assay: MIC and MBC by broth microdilution in MRSB; format: cell-based, Lactobacillus reuteri; settings: Limosilactobacillus reuteri
[2] = system: H. pylori ATCC43504 biofilm; assay: antibiofilm activity (alamarBlue, CFU count, crystal violet, Live/Dead fluorescence microscopy); format: cell-based, Helicobacter pylori; settings: for CFU count of biofilm / inhibition of H. pylori biofilm development: sub-MIC (carvacrol, thymol 64 µg/mL; amoxicillin 0.016 µg/mL); for biofilm observed by fluorescence microscopy (Live/Dead): sub-MIC treated samples, 72 h of incubation
Protocol: The CA inhibitors and amoxicillin were diluted in liquid culture medium consisting of BB supplemented with 2% (v/v) of FBS and 0.3% (w/v) of glucose. […] The controls consisted of: […] The antibiofilm assay was performed in 96-well flat bottom microtiter plates (Eppendorf, Hamburg, Germany). The biofilm formation in the controls and treated samples was evaluated in 35 mm Petri dishes (Eppendorf, Hamburg, Germany) stained with Live/Dead staining and visualized by fluorescence microscope. Three independent experiments were performed in triplicate. The plates were incubated at 37 °C for 72 h under microaerophilic conditions. After 72 h of incubation, the minimum biofilm inhibitory concentration (MBIC) was determined through the alamarBlue assay, the CFU count, and the crystal violet (CV) assay (Sigma Aldrich, St. Louis, MO, USA). In detail, at the end of the incubation, the non-adherent cells, corresponding to the planktonic supernatant, were removed, and the biofilms were washed with 100 µL of DPBS (Sigma Aldrich, St. Louis, MO, USA). AlamarBlue was diluted to 10% in the selected culture medium, and 100 µL was added to each sample in the wells. The samples were incubated for 4 h at 37 °C in microaerophilic conditions, and subsequently the percentage of alamarBlue reduction was determined. The CFU count was carried out starting from the wells stained with alamarBlue. […] Serial dilutions of the stock were performed in DPBS, plated on the selected agar, and incubated at 37 °C under microaerophilic conditions for 3–5 days. The antibiofilm activity was also determined through crystal violet staining following the procedure indicated. Then, the absorbance at 590 nm was measured, and the percentage of biofilm biomass, normalized to the control, was determined. […] The biofilms developed in 35 mm Petri dishes were stained with Live/Dead™ BacLight™ Bacterial Viability Kit (Life Technologies Carlsbad, CA, USA) as previously reported and immediately visualized at the fluorescence microscope.

[3] = system: H. pylori ATCC43504 planktonic and biofilm phenotypes; format: cell-based, Helicobacter pylori
[4] = system: L. acidophilus ATCC SD5214; assay: MIC and MBC by broth microdilution in MRSB; format: cell-based; settings: Lactobacillus acidophilus
H. pylori [5] = assay: flow cytometry detection of cell viability (Live/Dead BacLight); settings: sub-MIC treated samples, SYTO 9/propidium iodide
[6] = system: L. rhamnosus GG ATCC 53103; assay: MIC and MBC by broth microdilution in MRSB; format: cell-based, Lactobacillus rhamnosus; settings: Lacticaseibacillus rhamnosus
H. pylori ATCC43504 = assay: MIC and MBC by broth micro-dilution with alamarBlue; format: cell-based; settings: Helicobacter pylori
Protocol: H. pylori colonies were collected and inoculated in Brucella Broth (BB; Oxoid Ltd., Hampshire, UK) added with 2% (v/v) of foetal bovine serum (FBS; Sigma Aldrich, Milan, Italy). […] Oxoid Ltd., Hampshire, UK). […] The MIC was determined by the broth micro-dilution method, following the guidelines of the Clinical and Laboratory Standards Institute. […] Carvacrol and thymol were resuspended in dimethyl sulfoxide (DMSO, Sigma-Aldrich, Milan, Italy) and were diluted in the liquid culture medium described above. […] The controls consisted of: (I) H. pylori broth culture; (II) BB plus 2% (v/v) of FBS, with the addition of the two CA inhibitors or amoxicillin at different concentrations; (III) just BB plus 2% (v/v) of FBS. Three independent experiments were performed in triplicate. The plates were then incubated at 37 °C for 72 h under microaerophilic conditions. […] AlamarBlue was added at 10% in each well, following the manufacturer instructions, and the plates were placed in an incubator for 4 h at 37 °C in microaerophilic conditions. After the incubation, the percentage of alamarBlue reduction of treated and untreated samples was determined, as previously described. The minimum bactericidal concentration (MBC) was determined by using the same wells stained with alamarBlue. Briefly, 100 μL of the bacterial suspensions, taken from the blue-violet wells, were seeded on the selected agar plates and incubated at 37 °C for 3–5 days in microaerophilic conditions.

AGS cells = system: AGS cells; design: method as in PMID 33228095, PMID 33805064; settings: read-out: IC50 against AGS cells; cited from earlier work
SmuCA = SmuCA (Streptococcus mutans, UniProt Q8DVY1); assay: stopped-flow CO2 hydrase assay, SmuCA; format: biochemical
SmuCA, sequence (Q8DVY1 1-166): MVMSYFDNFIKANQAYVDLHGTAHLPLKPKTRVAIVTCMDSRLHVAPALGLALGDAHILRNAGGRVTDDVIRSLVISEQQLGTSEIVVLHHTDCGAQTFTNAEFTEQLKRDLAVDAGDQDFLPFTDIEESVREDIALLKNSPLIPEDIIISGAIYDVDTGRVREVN

PgiCAβ = PgiCAβ (Porphyromonas gingivalis, UniProt B2RL07); assay: stopped-flow CO2 hydrase assay, PgiCAβ; format: biochemical
PgiCAβ, sequence (B2RL07 19-242): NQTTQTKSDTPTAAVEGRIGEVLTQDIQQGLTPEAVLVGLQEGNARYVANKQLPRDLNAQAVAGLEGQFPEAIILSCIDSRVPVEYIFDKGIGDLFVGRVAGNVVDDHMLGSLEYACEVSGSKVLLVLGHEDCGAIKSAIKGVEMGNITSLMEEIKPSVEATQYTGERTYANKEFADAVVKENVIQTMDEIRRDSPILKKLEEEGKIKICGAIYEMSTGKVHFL

HpCAβ [7] = target: T1, HpCAβ (Helicobacter pylori, UniProt O24855); assay: biochemical; settings: mean from three assays, errors ±5–10%
T1 sequence (O24855 1-221): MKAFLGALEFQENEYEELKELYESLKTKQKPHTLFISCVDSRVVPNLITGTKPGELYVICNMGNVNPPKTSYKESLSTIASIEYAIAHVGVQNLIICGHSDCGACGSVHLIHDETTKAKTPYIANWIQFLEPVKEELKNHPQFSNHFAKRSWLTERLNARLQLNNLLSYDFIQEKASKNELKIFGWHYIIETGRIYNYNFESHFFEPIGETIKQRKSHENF

(UniProt Q9ZK30) = assay: biochemical; design: species or system Helicobacter pylori; settings: read-out: Ki HpCAα
(UniProt Q9ZK30), sequence (Q9ZK30 19-247 limits assumed): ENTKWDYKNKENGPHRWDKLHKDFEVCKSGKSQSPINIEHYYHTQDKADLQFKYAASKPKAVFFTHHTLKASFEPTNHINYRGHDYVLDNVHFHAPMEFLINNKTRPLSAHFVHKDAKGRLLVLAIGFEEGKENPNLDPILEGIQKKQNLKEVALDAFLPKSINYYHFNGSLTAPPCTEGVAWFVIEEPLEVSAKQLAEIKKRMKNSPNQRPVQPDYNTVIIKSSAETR

[8] = system: several reference and clinical H. pylori strains; design: method as in PMID 33228095, PMID 33805064; settings: cited from earlier work
MgCA = MgCA (Malassezia globosa, UniProt A8Q1N3); assay: stopped-flow CO2 hydrase assay, MgCA; format: biochemical
MgCA, sequence (A8Q1N3 1-241): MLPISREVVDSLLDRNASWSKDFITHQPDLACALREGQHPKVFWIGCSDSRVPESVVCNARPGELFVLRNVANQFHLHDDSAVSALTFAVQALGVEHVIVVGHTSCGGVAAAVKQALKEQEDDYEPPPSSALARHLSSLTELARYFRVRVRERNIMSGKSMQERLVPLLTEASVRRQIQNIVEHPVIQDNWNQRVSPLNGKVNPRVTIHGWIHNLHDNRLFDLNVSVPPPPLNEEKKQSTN

HpCAβ [9] = target: T1, HpCAβ; settings: both HpCAs; cited from earlier work
[10] = system: H. pylori ATCC43504/NCTC11637; settings: characterisation of reference strain ATCC43504/NCTC11637; no reference given; cited from earlier work
hCA VI = target: T2, hCA VI (Homo sapiens, UniProt P23280); assay: stopped-flow CO2 hydrase assay, hCA VI; format: biochemical
T2 construct: made in house; host or cells: Escherichia coli (DE3)
T2 sequence (P23280 18-308): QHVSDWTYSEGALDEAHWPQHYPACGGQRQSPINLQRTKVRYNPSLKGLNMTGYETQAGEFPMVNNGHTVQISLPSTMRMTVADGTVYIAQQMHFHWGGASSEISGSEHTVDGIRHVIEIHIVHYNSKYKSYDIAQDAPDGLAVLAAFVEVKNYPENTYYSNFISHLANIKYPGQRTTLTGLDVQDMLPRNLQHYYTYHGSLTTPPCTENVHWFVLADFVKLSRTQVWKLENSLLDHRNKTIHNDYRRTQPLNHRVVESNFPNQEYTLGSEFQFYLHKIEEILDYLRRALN

hCA I = target: T3, hCA I (Homo sapiens, UniProt P00915); assay: stopped-flow CO2 hydrase assay, hCA I; format: biochemical
T3 construct: made in house; host or cells: Escherichia coli (DE3)
T3 sequence (P00915 whole entry): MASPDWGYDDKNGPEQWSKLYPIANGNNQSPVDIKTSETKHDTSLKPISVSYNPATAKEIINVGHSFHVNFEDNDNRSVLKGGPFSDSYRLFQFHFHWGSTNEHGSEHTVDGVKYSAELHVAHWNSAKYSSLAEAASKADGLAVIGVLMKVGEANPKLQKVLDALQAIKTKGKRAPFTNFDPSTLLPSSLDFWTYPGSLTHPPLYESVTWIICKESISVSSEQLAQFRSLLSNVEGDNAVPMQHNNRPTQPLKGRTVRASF

hCA II = target: T4, hCA II (Homo sapiens, UniProt P00918); assay: stopped-flow CO2 hydrase assay, hCA II; format: biochemical
T4 construct: made in house; host or cells: Escherichia coli (DE3)

[11] = DSM17938, L. reuteri DSM 17938, 24 h, anaerobic, read-out: MIC
[12] = DSM17938, L. reuteri DSM 17938, read-out: MBC
[13] = Planktonic T (treated with sub-MIC concentration)
[14] = biofilm phenotype, sub-MIC concentration
[15] = planktonic phenotype, sub-MIC concentration
[16] = ATCCSD5214, L. acidophilus ATCC SD5214, 24 h, anaerobic, read-out: MIC
[17] = ATCCSD5214, L. acidophilus ATCC SD5214, read-out: MBC
[18] = ATCC53103, L. rhamnosus GG ATCC 53103, 24 h, anaerobic, read-out: MIC
[19] = ATCC53103, L. rhamnosus GG ATCC 53103, read-out: MBC
[20] = H. pylori ATCC43504, 72 h, microaerophilic, read-out: MIC
[21] = H. pylori ATCC43504, read-out: MBC

SMILES	viability (flow cytometry) (H. pylori [1])	MIC (L. reuteri DSM 17938; [11])	MBC (L. reuteri DSM 17938; [12])	CFU count of biofilm ([2]; 72 h)	inhibition of H. pylori biofilm development ([2]; 72 h)	biofilm observed by fluorescence microscopy (Live/Dead) [2]	% OMV eDNA+/Total OMVs [3, 13]	pOMV eDNA+ count versus untreated [3, 15]	total pOMVs count versus untreated [3, 15]	MIC [4, 16]	MBC [4, 17]	live cells (flow cytometry) (H. pylori [5])	MIC [6, 18]	MBC [6, 19]	MIC (H. pylori ATCC43504; [20])	MBC (H. pylori ATCC43504; [21])	IC50 (AGS cells)	Ki (SmuCA)	Ki (PgiCAβ)	Ki (HpCAβ [7])	other results
CC1(C)S[C@@H]2[C@H](NC(=O)[C@H](N)c3ccc(O)cc3)C(=O)N2[C@H]1C(=O)O [amoxicillin, reference compound]	around 64%	16 µg/mL (≈ 43.8 µM)	64 µg/mL (≈ 175 µM)	1.92 × 10^7 CFUs	did not inhibit H. pylori biofilm formation	well-structured biofilm with some dead cells	16.52%	decrease	decrease	0.25 µg/mL (≈ 0.684 µM)	0.25 µg/mL (≈ 0.684 µM)	3.18 × 10^6 live cells/mL	1 µg/mL (≈ 2.74 µM)	1 µg/mL (≈ 2.74 µM)	0.032 µg/mL (≈ 0.0876 µM)	0.032 µg/mL (≈ 0.0876 µM)	–	–	–	–	% OMV eDNA+/Total OMVs ([3]; Biofilm T (treated with sub-MIC concentration)): 36.09%; bOMV eDNA+ versus untreated [3, 14]: no differences; total bOMVs versus untreated [3, 14]: no differences
Cc1ccc(C(C)C)cc1O [carvacrol]	–	–	–	No CFUs were observed	ability to inhibit the development of the H. pylori mature biofilm	no biofilm formation	32.53%	–	–	–	–	3.80 × 10^4 live cells/mL	–	–	–	–	300 ± 6.5 µM	86.6 µM	28 µM	13.3 µM	MBC (L. reuteri DSM 17938; DSM17938): > 8000 µg/mL; MIC (L. reuteri DSM 17938; DSM17938): 8000 µg/mL (≈ 53300 µM); MIC (L. reuteri DSM 17938; DSM17938, 24 h): 8000 µg/mL (≈ 53300 µM); biofilm biomass percentage (crystal violet) versus untreated samples [2]: significantly lower; percentage of alamarBlue reduction in respect to the corresponding controls [2]: about 80%; pOMV eDNA+ count versus untreated [3]: no differences were found; total pOMVs count versus untreated [3]: lower count; MBC ([4]; ATCCSD5214): > 16000 µg/mL; MIC ([4]; ATCCSD5214, 24 h): > 16000 µg/mL; Ki ((UniProt Q9ZK30)): 8.4 µM; MIC range [8]: 16 to 64 µg/mL; viability (flow cytometry) (H. pylori [5]): 35%; Ki (MgCA): 6.8 µM; MBC ([6]; ATCC53103): > 16000 µg/mL; MIC ([6]; ATCC53103, 24 h): > 16000 µg/mL; MBC (H. pylori ATCC43504; ATCC43504): 256 µg/mL (≈ 1700 µM); MIC (H. pylori ATCC43504; ATCC43504, 72 h): 128 µg/mL (≈ 852 µM)
NC(N)=Nc1nc(CSCCC(N)=NS(N)(=O)=O)cs1 [famotidine]	–	–	–	–	–	–	–	–	–	–	–	–	–	–	–	–	–	–	–	–	inhibitory profile toward HpCAβ (HpCAβ [9]): nanomolar range
Cc1ncc([N+](=O)[O-])n1CCO [metronidazole]	–	–	–	–	–	–	–	–	–	–	–	–	–	–	–	–	–	–	–	–	MIC range [10]: 64 to 256 µg/mL
Cc1ccc(C(C)C)c(O)c1 [thymol]	around 32%	4000 µg/mL (≈ 26600 µM)	> 4000 µg/mL	No CFUs were observed	ability to inhibit the development of the H. pylori mature biofilm	no biofilm formation	35.47%	significative difference	significative difference	> 16000 µg/mL	> 16000 µg/mL	3.00 × 10^5 live cells/mL	> 16000 µg/mL	> 16000 µg/mL	128 µg/mL (≈ 852 µM)	256 µg/mL (≈ 1700 µM)	200 ± 6.5 µM	84.9 µM	48.9 µM	3.4 µM	Ki (hCA VI): > 100 µM; Ki (hCA I): > 100 µM; MIC (L. reuteri DSM 17938; DSM17938, L. reuteri DSM 17938, text, read-out: MIC): 4000 µg/mL (≈ 26600 µM); biofilm biomass percentage (crystal violet) versus untreated samples ([2]; sub-MIC 64 µg/mL, 72 h): significantly lower; percentage of alamarBlue reduction in respect to the corresponding controls ([2]; sub-MIC 64 µg/mL, biofilm, 72 h): ~85%; MIC range [8]: 64 to 128 µg/mL; Ki (MgCA): > 100 µM; Ki (hCA II): > 100 µM

From paper PMC8584244 (International Journal of Molecular Sciences, 2021)
